Data reported in patent US10501464B2, “7-oxo-6-(sulfooxy)-1,6-diazabicyclo[3.2.1]octane-2-carboxamide containing compounds and their use in treating bacterial infections” (WOCKHARDT LIMITED, priority 2015, dated 2019).
Where two headings read alike, the source gives them in different places.

What was measured:
Test in all cases: Antibacterial activity, MIC by agar dilution (CLSI)
Type in all cases: cell-based
[1] = system: K. pneumoniae ATCC 700603
Experimental: (§1) The biological activity of representative compounds according to the invention against various bacterial strains was investigated. In a typical study, overnight grown bacterial cultures were diluted appropriately and inoculated on the agar media containing doubling dilutions of the test compounds. Observations for growth or no growth was performed after 16-20 hours of incubation at 35±2° C. in the ambient air. The overall procedure was performed as per Clinical and Laboratory Standards Institute (CLSI) recommendations, (Clinical and Laboratory Standards Institute (CLSI), Performance Standards for Antimicrobial Susceptibility Testing, 20th Informational Supplement, M07-A9, Volume 32, No. 2, 2012). Molten Mueller Hinton Agar (BD, USA) containing serial dilutions of each antibacterial agent were poured on to the plates and allowed to solidify. Appropriate suspensions from the freshly grown cultures were prepared in normal saline so that about 10^4CFU/spot of the organism was delivered on to the drug containing agar plates using automated multipoint inoculator (Mast, UK). The plates were incubated in Biochemical oxygen demand (BOD) incubator at 37° C. for 18 hours and then examined for growth.
(§2) Method for the determination of MIC: The Minimum Inhibitory Concentration (MIC) determination for the combinations was carried out in Muller Hinton Agar (MHA) (BD, USA) according to Clinical and Laboratory Standards Institute (CLSI) recommendations, (Clinical and Laboratory Standards Institute (CLSI), Performance Standards for Antimicrobial Susceptibility Testing, 20th Informational Supplement, M 100-S20, Volume 30, No. 1, 2010). In short, the test strains were adjusted to deliver about 10^4CFU per spot with a multipoint inoculator (Applied Quality Services, UK). The plates were poured with MHA containing doubling concentration range of representative compounds according to present invention. The plates were inoculated and were incubated at 35° C. for 18 hour. […] The Table 2 depicts the antibacterial activity profile of compounds according to present invention against various multidrug resistant bacterial strains.

[2] = system: K. pneumoniae H 522; settings: compound tested alone
Experimental: as §1, §2

[3] = system: K. pneumoniae H 521; settings: compound tested alone
Experimental: as §1, §2

[4] = system: E. coli M 49; settings: compound tested alone
Experimental: as §1, §2

[5] = system: E. coli 7 MP; settings: compound tested alone
Experimental: as §1, §2

[6] = system: E. coli 13352; settings: compound tested alone
Experimental: as §1, §2

[7] = system: E. coli H 483
Experimental: as §1, §2

[8] = system: E. coli M 138; settings: compound tested alone
Experimental: as §1, §2

[9] = system: E. coli M 36; settings: compound tested alone
Experimental: as §1, §2

[10] = system: E. coli 13351; settings: compound tested alone
Experimental: as §1, §2

[11] = system: E. coli M 50; settings: compound tested alone
Experimental: as §1, §2

[12] = system: E. coli 13353; settings: compound tested alone
Experimental: as §1, §2

[13] = system: K. pneumoniae H 525; settings: compound tested alone
Experimental: as §1, §2

[14] = system: K. pneumoniae H 523; settings: compound tested alone
Experimental: as §1, §2

[15] = system: P. mirabilis S 137B; settings: compound tested alone
Experimental: as §1, §2

[16] = Klebsiella pneumoniae, ATCC700603, compound tested alone, read-out: MIC
[17] = Klebsiella pneumoniae, H522, K. pneumoniae H 522, read-out: MIC
[18] = Klebsiella pneumoniae, H521, K. pneumoniae H 521, read-out: MIC
[19] = Escherichia coli, M49, E. coli M 49, read-out: MIC
[20] = Escherichia coli, 7MP, read-out: MIC
[21] = Escherichia coli, 13352, E. coli 13352, read-out: MIC
[22] = Escherichia coli, M138, E. coli M 138, read-out: MIC
[23] = Escherichia coli, M36, E. coli M 36, read-out: MIC
[24] = Escherichia coli, 13351, E. coli 13351, read-out: MIC
[25] = Escherichia coli, M50, E. coli M 50, read-out: MIC
[26] = Escherichia coli, 13353, E. coli 13353, read-out: MIC
[27] = Klebsiella pneumoniae, H525, K. pneumoniae H 525, read-out: MIC
[28] = Klebsiella pneumoniae, H523, K. pneumoniae H 523, read-out: MIC
[29] = Proteus mirabilis, S137B, read-out: MIC

Row | SMILES | MIC [1, 16] [µg/mL] | MIC [2, 17] [µg/mL] | MIC [3, 18] [µg/mL] | MIC [4, 19] [µg/mL] | MIC [5, 20] [µg/mL] | MIC [6, 21] [µg/mL] | MIC [8, 22] [µg/mL] | MIC [9, 23] [µg/mL] | MIC [10, 24] [µg/mL] | MIC [11, 25] [µg/mL] | MIC [12, 26] [µg/mL] | MIC [13, 27] [µg/mL] | MIC [14, 28] [µg/mL] | MIC [15, 29] [µg/mL] | other results
1 | CC(C)(O/N=C(\C(=O)N[C@@H]1C(=O)N2C(C(=O)[O-])=C(C[n+]3ccccc3)CS[C@H]12)c1csc(N)n1)C(=O)O [Ceftazidime, reference compound] |  |  |  |  |  |  |  |  |  |  |  |  |  |  | MIC ([1]; compound tested alone): 16 µg/mL; MIC ([2]; K. pneumoniae H 522): >32 µg/mL; MIC ([3]; K. pneumoniae H 521): >32 µg/mL; MIC ([4]; E. coli M 49): >32 µg/mL; MIC [5]: >32 µg/mL; MIC ([6]; E. coli 13352): >32 µg/mL; MIC ([7]; compound tested alone): >32 µg/mL; MIC ([8]; E. coli M 138): >32 µg/mL; MIC ([9]; E. coli M 36): >32 µg/mL; MIC ([10]; E. coli 13351): 16 µg/mL; MIC ([11]; E. coli M 50): >32 µg/mL; MIC ([12]; E. coli 13353): >32 µg/mL; MIC ([13]; K. pneumoniae H 525): >32 µg/mL; MIC ([14]; K. pneumoniae H 523): >32 µg/mL; MIC [15]: >32 µg/mL
2 | Nc1cn([C@@H]2CN[C@H](CONC(=O)[C@@H]3CC[C@@H]4CN3C(=O)N4OS(=O)(=O)O)C2)cn1 [Example 16] | > 32 | 4 | 4 | 8 | 8 | 2 | 2 | 2 | 2 | 2 | 2 | 4 | 4 | > 32 | MIC ([7]; Escherichia coli, H483, compound tested alone, read-out: MIC): > 32 µg/mL
3 | O=C(NNC(=O)[C@@H]1CC[C@@H]2CN1C(=O)N2OS(=O)(=O)O)[C@@H]1C[C@@H](n2ccnc2)CN1 [Example 33] | > 32 | 4 | 8 | 16 | 8 | 4 | 4 | 2 | 4 | 2 | 4 | 4 | 4 | > 32 | 
4 | O=C(NOC[C@@H]1C[C@H](n2cncn2)CN1)[C@@H]1CC[C@@H]2CN1C(=O)N2OS(=O)(=O)O [Example 9] | > 32 | 2 | 2 | 4 | 2 | 2 | 1 | 1 | 2 | 1 | 1 | 2 | 2 | > 32 | 
5 | O=C(NOC[C@H]1C[C@H](n2ccnc2)CN1)[C@@H]1CC[C@@H]2CN1C(=O)N2OS(=O)(=O)O [Example 7] | > 32 | 2 | 2 | 4 | 2 | 1 | 1 | 0.5 | 1 | 1 | 0.5 | 2 | 2 | > 32 | 
6 | O=C(NNC(=O)[C@@H]1CC[C@@H]2CN1C(=O)N2OS(=O)(=O)O)[C@@H]1C[C@@H](n2cccn2)CN1 [Example 3] | > 32 | 4 | 4 |  | 8 |  | 2 | 2 |  |  |  | 4 | 4 | > 32 | MIC ([4]; E. coli M 49): 4 µg/mL; MIC ([6]; E. coli 13352): 1 µg/mL; MIC ([10]; E. coli 13351): 1 µg/mL; MIC ([11]; E. coli M 50): 1 µg/mL; MIC ([12]; E. coli 13353): 1 µg/mL
7 | O=C(NNC(=O)[C@@H]1CC[C@@H]2CN1C(=O)N2OS(=O)(=O)O)[C@@H]1C[C@H](n2nccn2)CN1 [Example 25] | > 32 | 4 | 4 | 8 | 2 | 1 | 2 | 1 | 1 | 1 | 0.5 | 8 | 4 | > 32 | 
8 | O=C(NNC(=O)[C@@H]1CC[C@@H]2CN1C(=O)N2OS(=O)(=O)O)C1C[C@H](n2ccnc2)CN1 (stereo partly drawn) [Example 28] | > 32 | 4 | 4 | 8 |  |  | 2 |  |  |  |  | 4 | 4 | > 32 | MIC [5]: 4 µg/mL; MIC ([6]; E. coli 13352): 1 µg/mL; MIC ([9]; E. coli M 36): 1 µg/mL; MIC ([10]; E. coli 13351): 1 µg/mL; MIC ([11]; E. coli M 50): 2 µg/mL; MIC ([12]; E. coli 13353): 1 µg/mL
9 | O=C(NNC(=O)[C@@H]1CC[C@@H]2CN1C(=O)N2OS(=O)(=O)O)[C@@H]1C[C@H](n2cnnn2)CN1 [Example 24] | > 32 | 4 | 4 | 16 | 8 | 2 | 4 | 4 | 2 | 4 | 4 | 4 | 4 | > 32 | 
10 | O=C(NNC(=O)[C@@H]1CC[C@@H]2CN1C(=O)N2OS(=O)(=O)O)[C@@H]1C[C@H](n2ncnn2)CN1 [Example 23] | > 32 | 4 | 4 | 8 | 4 | 2 | 2 | 1 | 2 | 1 | 1 | 4 | 4 | > 32 | 
11 | Cc1nnn([C@@H]2CN[C@H](C(=O)NNC(=O)[C@@H]3CC[C@@H]4CN3C(=O)N4OS(=O)(=O)O)C2)n1 [Example 31] | > 32 | 16 | 16 | > 32 | 16 | 4 | 8 | 4 | 4 | 8 | 4 | 8 | 16 | > 32 | 
12 | O=C(NNC(=O)[C@@H]1CC[C@@H]2CN1C(=O)N2OS(=O)(=O)O)[C@@H]1C[C@H](n2ccnn2)CN1 [Example 26] | > 32 | 8 | 8 | > 32 | 8 | 2 | 4 | 4 | 2 | 4 | 2 | 16 | 16 | > 32 | 
13 | O=C(NNC(=O)[C@@H]1CC[C@@H]2CN1C(=O)N2OS(=O)(=O)O)[C@@H]1C[C@H](n2cncn2)CN1 [Example 29] | > 32 | 2 | 2 | 4 | 2 | 1 | 1 | 0.5 | 1 | 0.5 | 0.5 | 2 | 2 | > 32 | 
14 | O=C(NNC(=O)[C@@H]1CC[C@@H]2CN1C(=O)N2OS(=O)(=O)O)[C@@H]1C[C@@H](n2cccn2)CN1 [Example 32] |  |  |  |  |  |  |  |  |  |  |  |  |  |  | MIC ([1]; compound tested alone): >32 µg/mL; MIC ([2]; K. pneumoniae H 522): 8 µg/mL; MIC ([3]; K. pneumoniae H 521): 8 µg/mL; MIC ([4]; E. coli M 49): 32 µg/mL; MIC [5]: 16 µg/mL; MIC ([6]; E. coli 13352): 4 µg/mL; MIC ([8]; E. coli M 138): 4 µg/mL; MIC ([9]; E. coli M 36): 4 µg/mL; MIC ([10]; E. coli 13351): 4 µg/mL; MIC ([11]; E. coli M 50): 4 µg/mL; MIC ([12]; E. coli 13353): 4 µg/mL; MIC ([13]; K. pneumoniae H 525): 8 µg/mL; MIC ([14]; K. pneumoniae H 523): 8 µg/mL; MIC [15]: >32 µg/mL
